Assay results as given in paper PMC6540222, “Small Molecule Inhibitors of KDM5 Histone Demethylases Increase the Radiosensitivity of Breast Cancer Cells Overexpressing JARID1B” (Molecules, 2019).
Where two headings read alike, the source gives them in different places.

Key:
[1] = tested on: pan-methyl-H3K9 levels in MCF-7 cells; experiment: Western blotting of pan-methyl-H3K9 levels; type: cell-based, human; settings: MCF-7, 24 h, three concentrations (1, 10, 30 μM)
Method: (§1) Histone isolation was performed according to acid extraction of histones protocol of Shechter and colleagues. Histone concentration was determined by running 5 μL of samples and known concentrations of commercially available purified calf thymus histones (from Sigma Aldrich Cat. #000000010223565001) on a SDS-PAGE gel. The gel is stained with Coomassie blue G 250 (BIO-RAD Cat. #161-0786) for 1 hour at room temperature and then destained in distilled water. The gel image is acquired with ChemiDoc XRS+ Imaging System (Bio-Rad, Hercules, CA, USA) and the volumes of bands of the samples are compared to standard concentrations of calf thymus histone.
(§2) Proteins were resolved on a 12% (histones) or 5% (JARID1B) denaturing polyacrylamide gel, using either 4 μg of histone preparation or 40 μg of cell lysate. […] Blots were scanned and analyzed with a ChemiDoc XRS+ Imaging System (Bio-Rad). The volumes of each band of protein was acquired using Bio-Rad’s ImageLab software by means of volume tools using global quantification. The signal for each protein was normalized to the housekeeping protein and ratios with average control values were determined. For histones as loading control was used either total histone H3 detected by a specific antibody or histone H1 levels by staining the upper part of the gel properly cut before protein transfer on nitrocellulose membrane.

[2] = tested on: AhR pathway in MCF-7 cells; experiment: Real Time PCR of CYP1A1 and AHRR transcripts (AhR pathway); type: cell-based, human; settings: MCF-7, 10 μM
Method: Total RNA from treated cells was isolated using miRNeasy® mini kit (#217004, Qiagen, Venlo, Netherlands), according to producer’s protocol guidelines. One μg of total RNA was reverse-transcribed using QuantiTect® Reverse Transcription Kit (#205311, Qiagen), according to producer’s protocol guidelines (Qiagen).
Relative quantification of gene expression was performed with the 7500 Real Time PCR System (Thermo Fisher Scientific (Applied Biosystems), Waltham, MA, USA) using SensiFAST™ SYBR® Lo-ROX Kit (#BIO 94020, Bioline, London, UK). The relative amount of mRNA expression was determined by means of ΔΔCt method, using GAPDH as internal control. Primers were designed using www.ncbi.nlm.nih.gov/tools/primer-blast/ and purchased from Sigma-Aldrich. The following oligos were used: • -3′ CYP1A1 mRNA: • - Fw: 5′- […]-3′ • CYP1A1 mRNA: • - Rv: 5′- […]-3′ • AHRR mRNA: • - Fw: 5′- […]-3′ • AHRR mRNA: • - Rv: 5′- […]-3′-3′ • GAPDH mRNA: • - Fw: 5′- […]-3′ • GAPDH mRNA: • - Rv: 5′- CGTTGTCATACCAGGAAAT-3′

[3] = tested on: H3K27me3 levels in MCF-7 cells; experiment: Western blotting of H3K27me3 levels; type: cell-based, human
Method: as §1, §2

MCF-7 cells [4] = experiment: CCK-8 viability assay after X-ray irradiation; type: cell-based, human; settings: MCF-7 irradiated with 3 Gy, all concentrations tested, compared to DMSO control, CCK-8 48 h post irradiation
Method: The cytoxicity assay was performed with Cell Counting Kit-8 (#96992, Sigma-Aldrich) according to the manufacturer’s instructions. 100 µL of MCF-7 T47D or MDA-MB231 cell suspension (5000 cells/well) was dispensed in a 96-well plate. After 24 h, inhibitor or DMSO was added in growth medium and then cells were irradiated. 48 h post irradiation, 10 μL of CCK-8 solution was added to each well of the plate and incubated again for 1 h. Incubate the plate for 1–4 h in the incubator. The absorbance at 450 nm was read using a VICTOR2 1420 reader (Perkin Elmer Wallac, Waltham, MA, USA). The absorbance at 450 nm of each sample, which is proportional to the number of viable cells, was first normalized on the same value of absorbance of blank (a well with only growth medium). The absorbance of each dose of radiation (sham, 0.3, 1 and 3 Gy) was normalized to the corresponding DMSO control and then, for each concentration of inhibitors, these values were normalized to the corresponding sham control.

KDM5 enzymes [5] = experiment: Enzymatic inhibition assay (Epigenase JARID Demethylase Activity/Inhibition Assay Kit, fluorometric); type: biochemical; settings: in vitro, toward KDM5 enzymes; This work
Method: Inhibition by RS5033 (IC50) was determined by the Epigenase™ JARID Demethylase Activity/Inhibition Assay Kit (Fluorometric) (#P-3083-48 Epigentek, Farmingdale, NY, USA) which is a complete set of optimized reagents, designed for an easy and fast fluorometric measurement of JARID activity or inhibition. The antibody-based, immune-specific method directly detects JARID-converted demethylated products, rather than by- products, in a 96 stripwell microplate format.

MCF-7 cells [6] = experiment: RNA-seq differential gene expression; type: cell-based, human; settings: MCF-7 treated with RS3195 10 μM
HeLa cells = tested on: HeLa cells; set-up: method as in PMID 24489688; settings: without affecting methylation of other lysins; cited from earlier work
KDM5 enzymes [7] = settings: cited from earlier work

| SMILES | H3K9me3 (pan-methyl-H3K9) levels [1] | CYP1A1 and AHRR transcript levels (AhR pathway genes) [2] | H3K27me3 levels ([3]; MCF-7, 24 h, three concentrations (1, 10, 30 μM)) | decrease of H3K27 tri-methylation ([3]; MCF-7, highest concentration of inhibitor) | reduction of viable cells (MCF-7 cells [4]) | IC50 (KDM5 enzymes [5]) [µM] | log2FoldChange AHRR (MCF-7 cells [6]; gene AHRR) | log2FoldChange CYP1A1 (MCF-7 cells [6]; gene CYP1A1) | log2FoldChange CYP1B1 (MCF-7 cells [6]; gene CYP1B1) | log2FoldChange RPS3A (MCF-7 cells [6]; gene RPS3A) | log2FoldChange TXNRD1 (MCF-7 cells [6]; gene TXNRD1) | H3K4 demethylation in HeLa cells (HeLa cells) | inhibition of KDM5B and KDM5D activity in vitro (KDM5 enzymes [7]) | IC50 (KDM5 enzymes [7]; in vitro, toward KDM5 enzymes, ref Mannironi et al. [36]) [µM] |
| --- | --- | --- | --- | --- | --- | --- | --- | --- | --- | --- | --- | --- | --- | --- |
| CCOC(=O)c1ccccc1C(=O)c1cccc(NS(=O)(=O)c2ccc(OC)cc2)c1 [RS5033] | not affected | only a slight increase | decrease | about two-fold | 20–35% | 1 | – | – | – | – | – | – | – | – |
| CCOC(=O)c1cccn1C(=O)c1cccc(NS(=O)(=O)c2ccc(OC)cc2)c1 [RS3195] | – | induces the genes involved in AhR pathway | – | – | more limited effect | – | 2.438 | 7.446 | 3.42 | 2.088 | 1.608 | decrease H3K4 demethylation | selectively inhibit | 2 |
